Columns and labels:
DC2.4 cells = assay: MHC I cross presentation of OVA257-264 in DC2.4 cells; format: cell-based, murine; conditions: 6 h incubation with 5 μM solution, with or without SiO2—PO3H2; 25-D1.16 antibody, flow cytometry
Protocol: In the experiment, the OVA257-264 presentation efficacy after incubation of 5·10^4 DC2.4 cells with 5 μM solutions of full length protein (OVA=Ovalbumin), N- and C-terminal elongated epitope (OVA247-264A5K, a so called synthetic long peptide (SLP)), N-terminal elongated epitope with a Cathepsin B cleavable sequence (exemplary shown RW-Cit-OVA257-264) or native epitope (OVA 257-264), each with and without nanoparticles, was compared. […] After an incubation time of 6 h, the test substances are removed by washing with phosphate-buffered saline (PBS). In the next step, the cells were incubated with CD16/CD32 antibody in order to block the non-specific binding of the detection antibody to the Fc (Fragment, crystallizable) receptor of the cells. After incubation with 25-D1.16 antibody, the amount of cross-presented OVA257-264 was quantified by flow cytometry.
FIG. 16: OVA257-264 MHC I presentation after 6 h incubation of H2-Kb positive cells with 5 μM solution of native or elongated OVA257-264 epitope or full length OVA protein with or without SiO2—PO3H2. Quantification was carried out by flow cytometry after labeling with 25-D1.16 detection antibody.

[1] = Stability measurement in human serum (HEK-Blue hTLR3 cell readout); format: in vitro ADME; conditions: 20% human serum, 37° C., 1 μg poly(I:C)/mL
[2] = Stability measurement in bovine serum (HEK-Blue hTLR3 cell readout); format: in vitro ADME; conditions: 60 minutes at 37° C., 5, 10 and 20% FBS
Source text: HEK-Blue™ hTLR3 Cells are designed to measure the stimulation of […] monitoring the activation of NF-kB. HEK-Blue™hTLR3Cells were obtained by co-transfection of the hTLR3 gene and an optimized secreted embryonic alkaline phosphatase (SEAP) reporter gene placed under the control of an NF-kB and AP-1-inducible promoter intoHEK293 cells. Stimulation with a TLR3 ligand activates NF-kB and AP-1 which induce the production of SEAP. Levels of SEAP can be easily determined with HEK-Blue™ Detection, a cell culture medium that allows for real-time detection of SEAP. The hydrolysis of the substrate by SEAP produces a purple/blue color that can be easily detected with the naked eye or measured with a 96 well plate reader (Invivogen).
The serum was used in concentrations of 5, 10 and 20%. A serum concentration of 20% corresponds quite well to the composition of peripheral lymph.
The poly(I:C) payload at SiO2—Arg in this case was about 2.5%. After exposure to FBS 20 μL of the medium were taken and added to 180 μL HEK-Blue™ hTLR3 cells in HEK-Blue™ Detection medium. This mixture was incubated for 13 hours at 37° C. and the plate was analyzed in a 96 well plate reader (Tecan Reader, Type: Infinite M200 Pro).

[3] = Solubility enhancement of epitopes (solubility in water); format: physicochemical
Source text: On the N-terminal site of the enzymatically cleaved linker the addition of polar amino acids can be used to enhance the solubility of the whole peptide. […] The use in a human vaccine is difficult. In animal studies researchers dissolve it in DMSO. The solubility after e.g. subcutaneous injection is questionable: dilution might result in precipitation of large peptide particles, which is very unfavorable for transport to lymphnodes.
According to the invention the epitope […] was enlarged on the N-terminal site with the enzymatic cleavable linker Val-Cit and the cationic solubilizing sequence Lys-Lys-Lys, leading to • KKKV-Cit-[…].
After endosomal and/or cytosolic cleavage by cathepsin B the native HPV 16 E782-90 is released. Also the remaining KKKV-Cit is not immunogenic, due to the fact it's too short to be presented at any MHC I or MHC II.

**Q.** With SIINFEKL [OVA257-264] as the molecule, how does the “OVA257-264 MHC I presentation” value (DC2.4 cells) read?
**A.** presented in significant amounts

**Q.** Which “% of initial concentration after 60 minutes” value [1] does the source give for “polyinosinic: polycytidylic acid [poly(I:C)]” here?
**A.** 18%

**Q.** And the calculated half-life [1]?
**A.** 24.2 min

**Q.** And the “stability in fetal bovine serum” value [2]?
**A.** clear signs of degradation at higher serum concentrations

**Q.** For `CC[C@H](C)[C@H](NC(=O)CNC(=O)[C@H](CC(C)C)NC(=O)[C@@H](NC(=O)CNC(=O)[C@H](CCSC)NC(=O)[C@H](CC(C)C)NC(=O)[C@@H](N)CC(C)C)[C@@H](C)O)C(=O)N[C@H](C(=O)O)C(C)C`, which solubility in water [3] is on record?
**A.** very bad

**Q.** With `CC[C@H](C)[C@H](NC(=O)CNC(=O)[C@H](CC(C)C)NC(=O)[C@@H](NC(=O)CNC(=O)[C@H](CCSC)NC(=O)[C@H](CC(C)C)NC(=O)[C@H](CC(C)C)NC(=O)[C@H](CCCNC(N)=O)NC(=O)[C@@H](NC(=O)[C@H](CCCCN)NC(=O)[C@H](CCCCN)NC(=O)[C@@H](N)CCCCN)C(C)C)[C@@H](C)O)C(=O)N[C@H](C(=O)O)C(C)C` as the molecule, how does the solubility in water [3] read?
**A.** excellent

**Q.** For RW-Cit-OVA257-264, which “OVA257-264 MHC I presentation” value (DC2.4 cells) is on record?
**A.** presented in significant amounts

— patent publication US20260000754A1, “NANOPARTICLES AS CARRIER-SYSTEM FOR ADJUVANTS/ANTIGENS” (UNIVERSITAT HEIDELBERG, priority 2020, published 2026)
